In EP0280167A2, “Use of lipophile anthracyclines for the secondary treatment of anthracycline-resistant tumors, composition containing a lipophile anthracycline and preparation thereof” (BEHRINGWERKE Aktiengesellschaft, priority 1987, dated 1988):
Read-outs that look alike come from different tables or passages of the source.

Key:
[1] = physchem; assay type: physicochemical; details: for logD: octanol/tris buffer
Description: Bestimmung des Oktanol-Wasser-Verteilungskoeffizienten P
Zu 1 ml einer 2-10 µmol/l Lösung der Anthracycline in oktanol-gesättigtem Tris-Puffer, pH 7, wurde 1 ml puffer-gesättigtes Oktanol gegeben und für etwa 1 h bei Raumtemperatur geschüttelt. Die wässrige Phase wurde anschliessend entnommen und die Substanzkonzentration in einem Fluoreszenzphotometer durch Vergleich mit Proben bekannter Konzentration bestimmt. Die Konzentration in der organischen Phase wurde durch Subtraktion der in der wässrigen Phase gefundenen Konzentration von der gesamten eingesetzten Konzentration ermittelt. Der Verteilungskoeffizient wurde berechnet nach der Formel: [formula]

[2] = test system: sensitive L1210 Leukämiezellen; experiment: Adriamycin uptake in sensitive L1210 cells with and without a lipophilic anthracycline (HPLC/fluorescence); assay type: cell-based; details: for Adriamycinaufnahme (in % der unbehandelten Kontrolle ohne Zusatz) L1210: 1 h, 37°C, sensitive L1210
Description: (§1) Zur Bestimmung der Adriamycinaufnahme wurden sensitive oder resistente Zellen (2 x 10⁵/ml) in dem Zellkulturmedium RPMI 1640 für 1h bei 37°C mit Adriamycin in Gegenwart und Abwesenheit eines lipophilen Anthracyclins inkubiert. Die Zellsuspension (5 ml) wurde danach zentrifugiert (1 min, 2000 g), das Zellpellet zweimal mit kalter phosphat-gepufferter Kochsalzlösung gewaschen und anschließend durch Zugabe von 100 µl ^RTriton X-100, 800 µl DNAse (Sigma, FRG) und 100 µl internem Standard (Daunomycin, 1 µg/ml) lysiert. Adriamycin und interner Standard wurden mit Hilfe von mit C18-Alkylresten derivatisiertem Kieselgel gefüllten Säulen (Bondelut C18, Analytichem) angereichert.
(§2) Nach Aktivierung dieser Säulen mit Methanol und Waschen mit doppelt destilliertem Wasser wurden die Proben auf die Säulen gegeben. Anschließend wurde mit doppelt destilliertem Wasser gewaschen und das gebundene Material mit 2 ml Chloroform/Methanol (2:1; v:v) eluiert. Nach dem Abdampfen des Lösungsmittelgemisches unter einem Stickstoffstrom wurden die Rückstände in jeweils 100 µl eines Gemisches aus 3 Teilen Acetonitril und 7 Teilen 20 mmol/l wässriger Phosphorsäure, pH 3 ("mobile Phase") gelöst. Die Auftrennung der Probenbestandteile erfolgte mit Hilfe der Hochdruckflüssigkeitschromatographie (20 µl Probe) über eine mit Nucleosil C18 (Partikelgrüße 5 µm) gefüllte Säule (12.5 x 0.46 cm).
(§3) Zur Detektion wurde ein Fluoreszenzdetektor bei einer Exitations- bzw. Emissionswellenlänge von 495 bzw. 590 nm verwendet. Die quantitative Analyse von Adriamycin erfolgte mit Hilfe eines Integrators durch Bestimmung der Peakflächen unter Berücksichtigung der wiedergefundenen Menge an internem Standard und Vergleich mit Proben, die bekannte Mengen an Adriamycin enthielten.

[3] = test system: resistente L1210 Leukämiezellen; experiment: Adriamycin uptake in adriamycin-resistant L1210 cells with and without a lipophilic anthracycline (HPLC/fluorescence); assay type: cell-based; details: for Adriamycinaufnahme (in % der unbehandelten Kontrolle ohne Zusatz) resistente L1210: 1 h, 37°C, resistant L1210; for Adriamycin-Aufnahme in adriamycinresistente L1210-Leukämiezellen: result in words, no concentration given
Description: (§4) Die Züchtung von adriamycin-resistenten L1210 Zellen erfolgte durch regelmäßig wiederholte, einstündige Inkubation von sensitiven L1210 Zellen mit steigenden Konzentrationen an Adriamycin bis ein Resistenzgrad (IC₅₀ resistente L1210/IC₅₀ sensitive L1210) gegenüber Adriamycin von etwa 80 erreicht war.
as §1, §2, §3

[4] = test system: nicht resistente L1210 Leukämiezellen; experiment: Proliferation test: cytotoxicity of Adriamycin on non-resistant L1210 cells with a lipophilic anthracycline present; assay type: cell-based; details: influence of the added lipophilic anthracycline; result in words
[5] = test system: resistente L1210 Zellen; experiment: Proliferation test: cytotoxicity on adriamycin-resistant L1210 cells; assay type: cell-based; details: resistant line grown by repeated 1 h incubation with rising Adriamycin concentrations
Excerpt: as §4

[6] = pH 7, statement in text, room temperature (20°C) in b7, read-out: Oktanol-Wasser Verteilungskoeffizient P (converted)
[7] = pH 7, octanol / Tris buffer pH 7, room temperature, * means greater than, read-out: P (converted)

| SMILES | logD [1, 6] | Adriamycinaufnahme (in % der unbehandelten Kontrolle ohne Zusatz) L1210 ([2]; anthracycline 1 µg/ml) | Adriamycinaufnahme (in % der unbehandelten Kontrolle ohne Zusatz) L1210 ([2]; anthracycline 10 µg/ml) | Adriamycinaufnahme (in % der unbehandelten Kontrolle ohne Zusatz) resistente L1210 ([3]; anthracycline 1 µg/ml) | Adriamycinaufnahme (in % der unbehandelten Kontrolle ohne Zusatz) resistente L1210 ([3]; anthracycline 10 µg/ml) | logD [1, 7] | Adriamycin-Aufnahme in adriamycinresistente L1210-Leukämiezellen [3] | Oktanol-Wasser Verteilungskoeffizient P ([1]; room temperature (20°C) in b7) | further results |
| --- | --- | --- | --- | --- | --- | --- | --- | --- | --- |
| COc1cccc2c1C(=O)c1c(O)c3c(c(O)c1C2=O)C[C@@](O)(C(=O)CO)C[C@@H]3O[C@H]1C[C@H](N)[C@@H](O)[C@H](C)O1 [Epirubicin] | < 1 |  |  |  |  |  |  |  |  |
| CCCCCN(C)[C@H]1C[C@H](O[C@H]2C[C@](O)(CC)[C@H](O)c3c(O)c4c(c(O)c32)C(=O)c2c(O)cccc2C4=O)O[C@@H](C)[C@H]1O [3'-N-Pentyl-3'-N-methyl-7-O-alpha-L-Daunosaminyl-ß-rhodomycinon] |  | 87% | 95% | 166% | 209% |  |  |  |  |
| CC[C@@]1(O)C[C@H](O[C@H]2C[C@H](N(C)C)[C@H](O[C@H]3C[C@H](O)[C@H](O[C@H]4CCC(=O)[C@H](C)O4)[C@H](C)O3)[C@H](C)O2)c2c(cc3c(c2O)C(=O)c2c(O)cccc2C3=O)[C@H]1C(=O)OC [ACM, Aclacinomycin] | ~2.3 |  |  |  |  | 2.28 | Erhöhung |  | zytotoxische Wirkung von Adriamycin auf nicht resistente L1210 Leukämiezellen [4]: nur schwach im Sinne einer additiven Wirkung beeinflußt; Adriamycin-Aufnahme in sensitive L1210 Zellen ([2]; result in words, no concentration given): nicht durch Aclacinomycin beeinflußt |
| CC[C@@]1(O)C[C@H](O)c2c(O)c3c(c(O)c2[C@H]1C(=O)OC)C(=O)c1c(O)ccc(O)c1C3=O [epsilon-iso-Rhodomycinon] |  | 90% | 87% | 146% | 144% |  | vergleichbare | > 100 |  |
| CCCCCCN(C)[C@H]1C[C@H](O[C@H]2C[C@](O)(CC)[C@H](O)c3c(O)c4c(c(O)c32)C(=O)c2c(O)cccc2C4=O)O[C@@H](C)[C@H]1O [3'-N-Hexyl-3'-N-methyl-7-O-alpha-L-Daunosaminyl-ß-rhodomycinon] |  | 97% | 97% | 197% | 197% |  |  |  |  |
| COc1cccc2c1C(=O)c1c(O)c3c(c(O)c1C2=O)C[C@@](O)(C(C)=O)C[C@@H]3O[C@H]1C[C@H](N)[C@H](O)[C@H](C)O1 [Daunomycin] | < 1 |  |  |  |  | 0.653 |  |  |  |
| CC[C@@]1(O)C[C@H](O)c2c(O)c3c(c(O)c2[C@H]1O)C(=O)c1cccc(O)c1C3=O [ß-Rhodomycinon] |  | 96% | 96% | 116% | 186% |  | vergleichbare | > 100 |  |
| CC[C@@]1(O)CCc2c(O)c3c(c(O)c2[C@H]1O)C(=O)c1cccc(O)c1C3=O [gamma-Rhodomycinon] |  |  |  |  |  |  | vergleichbare | > 100 |  |
| CC[C@@]1(O)C[C@H](O)c2c(O)c3c(c(O)c2[C@H]1C(=O)OC)C(=O)c1cccc(O)c1C3=O [epsilon-Rhodomycinon] |  |  |  |  |  | > 3 |  |  |  |
| COc1cccc2c1C(=O)c1c(O)c3c(c(O)c1C2=O)C[C@@](O)(C(=O)CO)C[C@@H]3O[C@H]1C[C@H](N)[C@H](O)[C@H](C)O1 [Doxorubicin] | < 1 |  |  |  |  |  |  |  | Resistenzgrad (IC₅₀ resistente L1210/IC₅₀ sensitive L1210) [5]: ~80 |
